Results as given in patent US20250032788A1, “COMPOSITIONS AND METHODS FOR TREATING WITH A COMBINATION OF ALTERNATING ELECTRIC FIELDS AND DNA-DEPENDENT PROTEIN KINASE INHIBITORS” (NOVOCURE GMBH, priority 2023, published 2025).
“Also recorded” adds a separate entry of the source.

Columns and labels:
Assay type in all cases: cell-based
H1299 cells [1] = assay: Cell cycle distribution by flow cytometer, H1299; conditions: 150 kHz, different times
Protocol: (§1) Similar results to the A549 cells were obtained in the H1299 cell line, where the concomitant treatment results in G1 arrest (FIG. 15). In these experiments 15,000 of H1299 cells/dish were seeded in inovitro dishes and incubated overnight to allow cell attachment. The cells were then treated with TTFields (0.97 V/cm RMS. 150 kHz) for different times, alone or with the addition of 6.25 μM of nedisertib. Cell cycle distribution was performed for each treatment alone and for the concomitant treatments using the Cytek® Northern Lights™ flow cytometer.
as §1, with “results” for “results to the A549 cells”, “20).” for “15).”, “The cells were then treated with TTFields (0.97 V/cm RMS. 150 kHz) for different times, alone or with the addition of 6.25 μM of nedisertib.” left out

H1299 cells [2] = assay: Inhibitor titration, cell count by flow cytometer, H1299; conditions: 72 hr, no TTFields
Protocol: (§2) This work was began with the titration of nedisertib. For these experiments 15,000 of A549 or H1299 cells/dish were seeded in 12-well plate and incubated overnight to allow cell attachment. The cells were then treated with various concentrations of nedisertib for 72 hr. The remaining cells were counted by flow cytometer (Guava easyCyte HT) (FIG. 11). […] For these experiments 15,000 of A549 or H1299 cells/dish were seeded in 12-well plates and incubated overnight to allow cell attachment. […] The remaining cells were counted by flow cytometer (Guava easy Cyte HT).

A549 cells [3] = assay: Inhibitor titration, cell count by flow cytometer, A549; conditions: 72 hr, no TTFields
Protocol: as §2

H1299 cells [4] = assay: Concomitant TTFields and inhibitor: cell count, colony formation, annexin V/7AAD apoptosis, H1299; conditions: TTFields 0.97 V/cm RMS, 150 kHz, 72 h
Protocol: (§3) In these experiments 15,000 of H1299 cells/dish were seeded in inovitro dishes and incubated overnight to allow cell attachment. The cells were then treated with TTFields (0.97 V/cm RMS, 150 KHz, 72 h), alone or with the addition of different concentrations of nedisertib. Efficacy was measured by analyzing cell count by flow cytometer (Guava easy Cyte HT), colony formation, and apoptosis induction by annexin V/7AAD staining. The overall effect was calculated by multiplying cell count with colony formation.
as §3, with “The cells were then treated with TTFields (0.97 V/cm RMS, 150 KHz, 72 h), alone or with the addition of different concentrations of nedisertib.” left out

A549 cells [5] = assay: Concomitant TTFields and inhibitor: cell count, colony formation, annexin V/7AAD apoptosis, A549; conditions: for interaction of co-application of TTFields and inhibitor: summary statement
Protocol: as §3, with “A549” for “H1299”, “(0.97V/cm” for “(0.97 V/cm”, “kHz,” for “KHz,”, “nedisertib,” for “nedisertib.”
as §3, with “A549” for “H1299”, “The cells were then treated with TTFields (0.97 V/cm RMS, 150 KHz, 72 h), alone or with the addition of different concentrations of nedisertib.” left out

A549 cells [6] = assay: Cell cycle distribution by flow cytometer, A549; conditions: for change in the sub G1 phase / cell cycle distribution, concomitant treatment with TTFields: 150 kHz; for cell cycle distribution, concomitant treatment with TTFields: different times
Protocol: as §1, with “The mechanism of action of” for “Similar results to the A549 cells were obtained in the H1299 cell line, where”, “was investigated and cell cycle analysis was performed.” for “results in G1 arrest (FIG. 15).”, “A549” for “H1299”, “6” for “6.25”, “nedisertib (FIG. 14).” for “nedisertib.”
In these experiments, 15,000 of A549 cells/dish were seeded in inovitro dishes and incubated overnight to allow cell attachment. […] Cell cycle distribution was performed for each treatment alone and for the concomitant treatments using the Cytek® Northern Lights™ flow cytometer.

DNA-PK = molecular target: T1, DNA-PK (Homo sapiens, UniProt P78527); assay: Western blot of DNA-PK autophosphorylation (pS2056) after radiation in primary glioma stem-like cells; conditions: VX984 250 nM, radiation 5 Gy, CX18 edge 2, CX18 core 1, OX5 edge and OX5 core
T1 construct: primary glioma stem-like cells (GSCs) treated with DNA-PKi or IR alone or in combination; endogenous in cells; host or cells: CX18 core 1 / edge 2 and OX5 core / edge primary glioma stem-like cells

[7] = tested on: CX18 edge 2, CX18 core 1, OX5 edge and OX5 core primary glioblastoma cells; assay: Clonogenic survival assay with TTFields, VX984 and radiation in 3D Alvetex culture; conditions: VX984 250 nM, 1 hr pre-treatment, TTFields 200 kHz, 72 hr, radiation, n=3
Protocol: Clonogenic survival assays of cells pre-treated with VX984 (250 nM, 1 hr) before TTFields incubation (200 kHz, 72 hr) in CX18 edge 2, CX18 core 1, OX5 edge and OX5 core cells. n=3, statistical significance denoted through ANOVA one-way analysis. Representative images of cell death post TTFields treatment in CX18 edge 2), CX18 core 2, OX5 edge and OX5 core cells.
FIG. 6 is a table with a summary of the survival data of TTFields alongside VX984 and radiation. The average intratumoural survival fractions (INTRA); OX5 core vs edge and CX18 core vs edge and the average intertumoural survival fraction; OX5 INTRA vs CX18 INTRA are shown. Bliss indices are calculated to ascertain if cell death is synergistic or addictive using the survival fraction product of DMSO+TTF and Combo−TTF as a ratio against Combo+TTF. Ratios<1.1 are seen as additive cell death whereas>1.1 is synergistic.

[8] = TTFields 0.97 V/cm RMS, 150 kHz, 72 h, different concentrations
[9] = 0.11 μM CC-115, TTFields 0.97 V/cm RMS
[10] = 6 μM nedisertib, TTFields 0.97 V/cm RMS

CCN1C(=O)CNc2ncc(-c3ccc(-c4nc[nH]n4)nc3C)nc21 [CC-115]
cell cycle distribution, concomitant treatment with TTFields (H1299 cells [1]; 0.3125 μM CC-115, TTFields 0.97 V/cm RMS): G1 arrest; also recorded: promotes cell cycle arrest | IC50 (remaining cells counted) (H1299 cells [2]): much lower than that of nedisertib; also recorded: higher than that of A549 | IC50 (remaining cells counted) (A549 cells [3]): much lower than that of nedisertib | overall effect (cell count multiplied by colony formation) of inhibitor with TTFields (H1299 cells [4]; different concentrations): additive overall effect; also recorded: enhance | levels of apoptosis at the concentration used for cell cycle analysis (A549 cells [5]; 0.11 μM CC-115): low levels of apoptosis | overall effect (cell count multiplied by colony formation) of inhibitor with TTFields (A549 cells [5]; [8]): synergistically enhanced; also recorded: enhance | interaction of co-application of TTFields and inhibitor (A549 cells [5]): synergistic interaction | change in the sub G1 phase (A549 cells [6]; [9]): don't see a significant change | cell cycle distribution, concomitant treatment with TTFields (A549 cells [6]; [9]): induced G1 arrest and a decreased number of s-phase cells; also recorded: promotes cell cycle arrest

COc1ccc([C@@H](O)c2cc(-c3ncnc4cc(N5CCOCC5)ccc34)c(F)cc2Cl)nn1 [Nedisertib]
cell cycle distribution, concomitant treatment with TTFields (H1299 cells [1]; 6.25 μM nedisertib, TTFields 0.97 V/cm RMS): G1 arrest; also recorded: promotes cell cycle arrest | IC50 (remaining cells counted) (H1299 cells [2]): higher than that of A549 | apoptotic effect of the concomitant treatment (annexin V/7AAD) (H1299 cells [4]): only significant in the higher doses | interaction of concomitant treatment of TTFields and inhibitor (H1299 cells [4]): additive interaction | cytotoxic effect (cell count) of inhibitor with TTFields (H1299 cells [4]; different concentrations): enhance | overall effect (cell count multiplied by colony formation) of inhibitor with TTFields (H1299 cells [4]; different concentrations): enhance | interaction of concomitant treatment of TTFields and inhibitor (H1299 cells [4]; listed as nedisertib): additive effect | levels of apoptosis at the concentration used for cell cycle analysis (A549 cells [5]; 6 μM nedisertib): low levels of apoptosis | apoptotic effect of the concomitant treatment (annexin V/7AAD) (A549 cells [5]; TTFields 0.97 V/cm RMS, 150 kHz, 72 h): only significant in the higher doses | cytotoxic effect (cell count) of inhibitor with TTFields (A549 cells [5]; [8]): synergistically enhanced; also recorded: enhance | overall effect (cell count multiplied by colony formation) of inhibitor with TTFields (A549 cells [5]; [8]): synergistically enhanced; also recorded: enhance | interaction of co-application of TTFields and inhibitor (A549 cells [5]): synergistic interaction | change in the sub G1 phase (A549 cells [6]; [10]): don't see a significant change | cell cycle distribution, concomitant treatment with TTFields (A549 cells [6]; [10]): highest level of arrest; also recorded: promotes cell cycle arrest | cell cycle distribution, inhibitor alone (A549 cells [6]; 6 μM nedisertib, at most time points): induce G1 arrest and a decreased number of s-phase cells

VX984
pDNAPK (pS2056) signal in response to radiation (DNA-PK): depletion of pDNAPK (pS2056) signal | glioblastoma cell death (clonogenic survival) [7]: enhances glioblastoma cell death by radiosensitisation
